Results as given in PMC9948168, “Vanillin-Based Indolin-2-one Derivative Bearing a Pyridyl Moiety as a Promising Anti-Breast Cancer Agent via Anti-Estrogenic Activity” (ACS Omega, 2023).

What was measured:
Assay in all cases: NCI-60 one-dose screening
Type in all cases: cell-based
[1] = test system: CAKI-1; details: Homo sapiens, CAKI-1, Renal Cancer, read-out: GI (%)
[2] = test system: CCRF-CEM; details: Homo sapiens, Leukemias, read-out: GI (%)
[3] = test system: HCC-2998; details: Homo sapiens, HCC-2998, Colon Cancer, read-out: GI (%)
[4] = test system: HL-60(TB); details: Homo sapiens, Leukemias, read-out: GI (%)
[5] = test system: HOP-92; details: Homo sapiens, HOP-92, Non-Small Cell Lung Cancer, read-out: GI (%)
[6] = test system: HS 578T; details: Homo sapiens, Breast Cancer, read-out: GI (%)
[7] = test system: M14; details: Homo sapiens, M14, Melanoma, read-out: GI (%)
[8] = test system: MCF7; details: Homo sapiens, MCF7, 10 μM; MCF7, Breast Cancer; read-out: GI (%)
[9] = test system: MDA-MB-231/ATCC; details: Homo sapiens, Breast Cancer, read-out: GI (%)
[10] = test system: MDA-MB-468; details: Homo sapiens, MDA-MB-468, Breast Cancer, read-out: GI (%)
[11] = test system: NCI-H522; details: Homo sapiens, NCI-H522, Non-Small Cell Lung Cancer, read-out: GI (%)
[12] = test system: OVCAR-8; details: Homo sapiens, OVCAR-8, Ovarian Cancer, read-out: GI (%)
[13] = test system: PC-3; details: Homo sapiens, PC-3, Prostate Cancer, read-out: GI (%)
[14] = test system: RPMI-8226; details: Homo sapiens, RPMI-8226, Leukemias, read-out: GI (%)
[15] = test system: RXF 393; details: Homo sapiens, RXF 393, Renal Cancer, read-out: GI (%)
[16] = test system: SF-268; details: Homo sapiens, SF-268, CNS Cancer, read-out: GI (%)
[17] = test system: SK-MEL-28; details: Homo sapiens, SK-MEL-28, Melanoma, read-out: GI (%)
[18] = test system: SK-MEL-5; details: Homo sapiens, SK-MEL-5, Melanoma, read-out: GI (%)
[19] = test system: SK-OV-3; details: Homo sapiens, SK-OV-3, Ovarian Cancer, read-out: GI (%)
[20] = test system: SN12C; details: Homo sapiens, Renal Cancer, read-out: GI (%)
[21] = test system: SNB-19; details: Homo sapiens, SNB-19, CNS Cancer, read-out: GI (%)
[22] = test system: SNB-75; details: Homo sapiens, SNB-75, CNS Cancer, read-out: GI (%)
[23] = test system: T-47D; details: Homo sapiens, T47D, Breast Cancer, read-out: GI (%)
[24] = test system: UACC-62; details: Homo sapiens, UACC-62, Melanoma, read-out: GI (%)

| SMILES | inhibition at 10 µM [2] | inhibition at 10 µM [3] | inhibition at 10 µM [4] | inhibition at 10 µM [5] | inhibition at 10 µM [6] | inhibition at 10 µM [8] | inhibition at 10 µM [9] | inhibition at 10 µM [10] | inhibition at 10 µM [11] | inhibition at 10 µM [12] | inhibition at 10 µM [13] | inhibition at 10 µM [14] | inhibition at 10 µM [16] | inhibition at 10 µM [17] | inhibition at 10 µM [18] | inhibition at 10 µM [19] | inhibition at 10 µM [20] | inhibition at 10 µM [21] | inhibition at 10 µM [22] | inhibition at 10 µM [23] | further results |
| --- | --- | --- | --- | --- | --- | --- | --- | --- | --- | --- | --- | --- | --- | --- | --- | --- | --- | --- | --- | --- | --- |
| COc1cc(C=C2C(=O)Nc3ccccc32)ccc1O (mixture of isomers) [5a] | 10.2% | -15% | 15.1% | 35% | 47.9% | 44.8% | 33.7% | 32.7% | 27.4% | 15.5% | 15.6% | 10.8% | 14.7% | 6.91% | 17.3% | 5.29% | 16% | 6.94% | 50.6% | 31.6% | inhibition at 10 µM [1]: 36%; inhibition at 10 µM [7]: 23.5%; inhibition at 10 µM [15]: -6.54%; inhibition at 10 µM [24]: 34.6% |
| COc1cc(C=C2C(=O)Nc3ccc(Cl)cc32)ccc1O (mixture of isomers) [5b] | 22.6% | -1.13% | 23.1% | 34.6% | 80.1% | 57.5% | 36.7% | 31.3% | 20.1% | 13.8% | 13.8% | 23.6% | 29.1% | 5.35% | 31.5% | -6.08% | 14.6% | 20.7% | 50.1% | 40.9% | inhibition at 10 µM [1]: 41%; inhibition at 10 µM [7]: 18.4%; inhibition at 10 µM [15]: -7.81%; inhibition at 10 µM [24]: 87.1% |
| COc1cc(C=C2C(=O)Nc3ccc(Cl)cc32)ccc1OCc1ccc(Cl)cc1 (mixture of isomers) [6g] | 18.1% | -4.18% | -1.67% | 27.8% | 2.99% | 54.4% | 21.6% | 17.2% | 6.96% | 8.51% | 22.3% | -3.63% | 20% | -3.4% | 8.56% | 2.96% | 9.18% | 12.8% | 28.1% | 10% | inhibition at 10 µM [1]: 24.2%; inhibition at 10 µM [7]: 2.22%; inhibition at 10 µM [15]: 9.18%; inhibition at 10 µM [24]: 27% |
| COc1cc(C=C2C(=O)Nc3ccc(Cl)cc32)ccc1OCc1ccc(F)cc1 (mixture of isomers) [6h] | 30.5% | -7.02% | -2.34% | 11.7% | 5.91% | 51% | 13.1% | 12.8% | 12.1% | 8.78% | 15.8% | -0.5% | 9.84% | -3.14% | 10.8% | -9.69% | 11.1% | 8.68% | 22.3% | 19.5% | inhibition at 10 µM [1]: 16.7%; inhibition at 10 µM [7]: 3.61%; inhibition at 10 µM [15]: 6.55%; inhibition at 10 µM [24]: 29.8% |
| COc1cc(C=C2C(=O)Nc3ccc(Cl)cc32)ccc1OCc1ccccn1 (mixture of isomers) [6j] | 2.39% | -6.73% | 3.78% | -0.22% | -2.66% | 63% | 4.62% | 14.6% | 4.56% | 3.83% | 11.7% | 0.53% | 1.24% | -15.1% | 3.73% | -4.32% | 3.96% | 8.13% | 14.8% | 9.54% | inhibition at 10 µM [1]: 24.4%; inhibition at 10 µM [7]: -0.51%; inhibition at 10 µM [15]: -0.84%; inhibition at 10 µM [24]: 21.4% |
| COc1cc(/C=C2/C(=O)Nc3ccccc32)ccc1OCc1ccc(F)cc1 [6c] | -2.41% | -18.9% | -15.2% | 0.18% | -15.2% | 12.2% | -0.03% | -2.14% | 8.05% | -1.99% | -0.92% | -6.91% | -5.39% | -10.2% | -2.32% | -14.1% | 0.05% | 0.68% | -5.65% | -6.65% | inhibition at 10 µM [24]: 7.29% |
| COc1ccc(COc2ccc(/C=C3/C(=O)Nc4ccccc43)cc2OC)cc1 [6d] | -3.81% | -2.21% | -14.7% | -1% | -5.29% | 6% | 0.09% | -0.39% | 6.6% | -0.59% | 4.22% | -4.4% | -3% | -6.58% | -7.74% | -19.1% | 0.36% | 2.66% | 2.65% | -12.8% | inhibition at 10 µM [24]: 3.29% |
| COc1cc(/C=C2/C(=O)Nc3cc(Cl)ccc32)ccc1OCc1ccccc1 [6k] | -1.12% | 0.85% | -20.2% | 4.54% | 0.08% | 31% | 8.09% | 7.61% | 4.41% | 0.19% | 6.35% | -4.86% | -1.04% | -6.39% | -1.43% | -10.9% | 3.34% | 1.7% | 3.2% | -0.39% | inhibition at 10 µM [24]: 6.07% |
| COc1ccc(COc2ccc(/C=C3/C(=O)Nc4cc(Cl)ccc43)cc2OC)cc1 [6n] | 5.65% | -22.2% | -13.9% | -8.09% | 0.21% | 24% | 5.7% | 7.72% | 11.5% | 1.31% | 7.65% | 9.52% | 0.26% | -2.94% | 3.06% | -7.5% | 4.32% | 1.46% | -12.8% | 12.8% | inhibition at 10 µM [24]: 12.2% |
| COc1cc(/C=C2/C(=O)Nc3cc(Cl)ccc32)ccc1OCc1ccccn1 [6o] | -8.83% | -11.7% | -17.3% | -5.39% | -1.2% | 27.7% | 13.4% | -3.25% | -1.8% | -2.7% | 2.25% | -0.91% | -6.37% | -7.43% | 1.29% | -7.09% | -4.12% | -1.66% | -0.58% | 0.18% | inhibition at 10 µM [24]: 6.45% |
